Test results published in patent publication US12370143B2, “Compound or salt thereof and lipid particles” (FUJIFILM Corporation, priority 2018, dated 2025).

Key:
[1] = Encapsulation rate of siRNA in nucleic acid lipid particles (Luc2-siRNA); format: physicochemical; conditions: compound/DSPC/cholesterol/DMG-PEG2000 50/10/38.5/1.5
Protocol: (§1) The compounds described in Table 2, L-α-distearoylphosphatidylcholine (trade name: COATSOME® MC-8080; NOF corporation), cholesterol (trade name: Choesterol HP; NIPPON FINE CHEMICAL CO., LTD.), and 1,2-dimyristoyl-rac-glycero-3-(methylpolyoxyethylene 2000) (hereinafter, called DMG-PEG2000) (trade name: SUNBRIGHT® GM-020; NOF corporation) were dissolved in ethanol at a molar ratio of 50/10/38.5/1.5 such that the total lipid concentration became 20 mmol/L, thereby obtaining an oil phase.
(§2) An aqueous nucleic acid solution obtained by dissolving 5 mg of Luc2-siRNA having the sequence described in Biomacromolecules (2013) 14, p. 3905 in 1 mL of sterile water was diluted with 10 mmol/L acetate buffer having a pH 4 such that the nucleic acid concentration became 19.7 μmol/L, thereby obtaining a water phase. Then, the water phase and the oil phase were mixed together by a micromixer (see JP5288254B) using a syringe pump such that the volume ratio of water phase:oil phase became 3:1 (final ratio of siRNA/lipid=339 (mol/mol)), and the mixed solution was diluted 2× with PBS, thereby obtaining a dispersion liquid of nucleic acid lipid particles. The dispersion liquid was dialyzed (Slide-A-Lyzer G2, MWCO: 10 kD, Thermo Fisher Scientific) using a phosphate buffered saline such that ethanol was removed, thereby obtaining nucleic acid lipid particles.
A 3 mol/L aqueous sodium acetate solution (30 μL) and 9 μL of glycogen were added to 60 μL of the lipid particles retaining nucleic acids, and then 1.5 mL of ethanol was added thereto such that only the nucleic acids were precipitated while the lipid was dissolved. Then, the supernatant was removed by centrifugation. After the precipitates were air-dried for 15 minutes or longer, water was added thereto such that the precipitates were redissolved, and the concentration thereof was measured using Nanodrop NF1000 (Thermo Fisher Scientific), thereby quantifying the total nucleic acid concentration.
The nucleic acid concentration was quantified using a Quant-iT RiboGreen RNA Assay Kit (Thermo Fisher Scientific) according to the protocol. First, a 20×TE buffer included in the above kit was diluted with water, thereby obtaining a 1×TE buffer. TE represents Tris/EDTA (ethylenediaminetetraacetic acid). In order to quantify only the nucleic acid in the outer water phase, the dispersion liquid of lipid particles retaining nucleic acids was diluted 10,000× with the 1×TE buffer.
The 10,000× diluted dispersion liquid of lipid particles (100 μL) was put in a 96-well plate, then 100 μL of a RiboGreen reagent (reagent included in the Quanti-iT Ribogreen RNA Assay Kit described above) diluted 2000× with the 1×TE buffer was added to a sample, and fluorescence (excitation wavelength: 485 nm, fluorescence wavelength: 535 nm) was measured using a plate reader Infinit EF200 (TECAN), thereby quantifying the nucleic acid concentration in the outer water phase.
By using the total nucleic acid concentration obtained through the above steps and the quantified nucleic acid concentration in the outer water phase, the nucleic acid encapsulation rate of the nucleic acid lipid particles was calculated according to the following Equation. Nucleic acid encapsulation rate (%)=(total nucleic acid concentration−nucleic acid concentration in outer water phase)/total nucleic acid concentration×100 The results are shown in Table 2.

[2] = Particle size of nucleic acid lipid particles (Luc2-siRNA); format: physicochemical; conditions: compound/DSPC/cholesterol/DMG-PEG2000 50/10/38.5/1.5
Protocol: By using the dispersion liquid of lipid particles as it was, the particle size of the lipid particles was measured using a zeta potential/particle size measurement system ELS-Z2 (Otsuka Electronics Co., Ltd.).
as §1, §2
The particle size of the nucleic acid lipid particles was measured by the same method as that in <Preparation of lipid particles>.

Which “Nucleic acid encapsulation rate” value [1] does the source give for `CCCCC/C=C\C/C=C\CCCCCCCCN(CCCCCCCC/C=C\C/C=C\CCCCC)C(=O)OCCCN(C)CCN(C)C` [Example 2, 3-((2-(Dimethylamino)ethyl)(methyl)amino)propyl di((9Z,12Z)-octadeca-9,12-dien-1-yl)carbamate] here?
The value was 78%.

What about the “Particle size (nm)” value [2] of the same compound?
The value was 80.5 nm.

For `CCCCC/C=C\C/C=C\CCCCCCCCN(CCCCCCCC/C=C\C/C=C\CCCCC)C(=O)OCCN(C)CCN1CCOCC1` [Example 5, 2-(Methyl(2-morpholinoethyl)amino)ethyl di((9Z,12Z)-octadeca-9,12-diene-1-yl)carbamate], which “Nucleic acid encapsulation rate” value [1] is on record?
Its value is 78%.

What about the “Particle size (nm)” value [2] of the same compound?
Its value is 73.8 nm.

Which “Nucleic acid encapsulation rate” value [1] does the source give for `CCCCC/C=C\C/C=C\CCCCCCCCN(CCCCCCCC/C=C\C/C=C\CCCCC)C(=O)OCCN(CC)CCN1CCOCC1` [Example 6, 2-(Ethyl(2-morpholinoethyl)amino)ethyl di((9Z,12Z)-octadeca-9,12-dien-1-yl)carbamate] here?
The value was 78%.

What about the “Particle size (nm)” value [2] of the same compound?
Its value is 113.5 nm.

What does the source list for `CCCCC/C=C\C/C=C\CCCCCCCCN(CCCCCCCC/C=C\C/C=C\CCCCC)C(=O)OCCN(C)CCCN(C)C` [Example 8, 2-((3-(Dimethylamino)propyl)(methyl)amino)ethyl di((9Z,12Z)-octadeca-9,12-dien-1-yl)carbamate]?
Nucleic acid encapsulation rate [1]: 83%; Particle size (nm) [2]: 81.4 nm

For `CCCCCC/C=C\COC(=O)CCCCCCCN(CCCCCCCC(=O)OC/C=C\CCCCCC)C(=O)OCCN(C)CCN(C)C` [Example 11, (Z)-non-2-en-1-yl 2,5-dimethyl-10-(8-(((Z)-non-2-en-1-yl)oxy)-8-oxooctyl)-9-oxo-8-oxa-2,5,10-triazaoctadecan-18-oate], which “Nucleic acid encapsulation rate” value [1] is on record?
Its value is 84%.

And the “Particle size (nm)” value [2]?
Its value is 217.2 nm.

With `CCCCCC/C=C/COC(=O)CCCCCCCN(CCCCCCCC(=O)OC/C=C/CCCCCC)C(=O)OCCN(C)CCN(C)C` [Example 12, (E)-non-2-en-1-yl 2,5-dimethyl-10-(8-(((E)-non-2-en-1-yl)oxy)-8-oxooctyl)-9-oxo-8-oxa-2,5,10-triazaoctadecan-18-oate] as the compound, how does the “Nucleic acid encapsulation rate” value [1] read?
Its value is 100%.

What about the “Particle size (nm)” value [2] of the same compound?
Its value is 254.2 nm.

Which “Nucleic acid encapsulation rate” value [1] does the source give for `CCCCCCCCCOC(=O)CCCCCCCN(CCCCCCCC(=O)OCCCCCCCCC)C(=O)OCCN(C)CCN(C)C` [Example 13, Nonyl 2,5-dimethyl-10-(8-(nonyloxy)-8-oxooctyl)-9-oxo-8-oxa-2,5,10-triazaoctadecan-18-oate] here?
The value was 88%.

What about the “Particle size (nm)” value [2] of the same compound?
The value was 140.3 nm.

For `CCCCCC/C=C\COC(=O)OCCCCCCN(CCCCCCOC(=O)OC/C=C\CCCCCC)C(=O)OCCN(C)CCN(C)C` [Example 14, 2-((2-(Dimethylamino)ethyl)(methyl)amino)ethyl bis(6-(((((Z)-non-2-en-1-yl)oxy)carbonyl)oxy)hexyl)carbamate], which “Nucleic acid encapsulation rate” value [1] is on record?
The value was 76%.

What about the “Particle size (nm)” value [2] of the same compound?
Its value is 219.0 nm.

Which “Nucleic acid encapsulation rate” value [1] does the source give for `CCCCCCCC/C=C\CCCCCCCCN(CCCCCCCCC)C(=O)OCCN(C)CCN(C)C` [Example 15, 2-((2-(Dimethylamino)ethyl)(methyl)amino)ethyl(Z)-nonyl(octadec-9-en-1-yl)carbamate] here?
Its value is 83%.

What about the “Particle size (nm)” value [2] of the same compound?
The value was 122.8 nm.

Which results are given for `CCCCC/C=C\C/C=C\CCCCCCCCN(CCCCCCCCC)C(=O)OCCN(C)CCN(C)C` [Example 16, 2-((2-(Dimethylamino)ethyl)(methyl)amino)ethyl nonyl((9Z,12Z)-octadeca-9,12-dien-1-yl)carbamate]?
Nucleic acid encapsulation rate [1]: 90%; Particle size (nm) [2]: 113.4 nm

Which results are given for `CCCCC/C=C\C/C=C\CCCCCCCCC(CCCCCCCC/C=C\C/C=C\CCCCC)OC(=O)OCCN(C)CCN1CCOCC1` [Example 21, 2-(Methyl(2-morpholinoethyl)amino)ethyl((6Z,9Z,28Z,31Z)-heptatriaconta-6,9,28,31-tetraen-19-yl)carbonate]?
Nucleic acid encapsulation rate [1]: 78%; Particle size (nm) [2]: 78.0 nm

With `CCCCC/C=C\C/C=C\CCCCCCCCC(CCCCCCCC/C=C\C/C=C\CCCCC)OC(=O)OCCN(CC)CCN1CCOCC1` [Example 22, 2-(Ethyl(2-morpholinoethyl)amino)ethyl((6Z,9Z,28Z,31Z)-heptatriaconta-6,9,28,31-tetraen-19-yl)carbonate] as the compound, how does the “Nucleic acid encapsulation rate” value [1] read?
Its value is 69%.

What about the “Particle size (nm)” value [2] of the same compound?
The value was 69.3 nm.

With `CCCCC/C=C\C/C=C\CCCCCCCCC(CCCCCCCC/C=C\C/C=C\CCCCC)OC(=O)OCCN(CCO)CCN(C)C` [Example 28] as the compound, how does the “Nucleic acid encapsulation rate” value [1] read?
The value was 75%.

And the “Particle size (nm)” value [2]?
The value was 76.4 nm.

What does the source list for `CCCCC/C=C\C/C=C\CCCCCCCCC(CCCCCCCC/C=C\C/C=C\CCCCC)OC(=O)OCCN(CCN(C)C)C1CCCCC1` [Example 32, 2-(Cyclohexyl(2-(dimethylamino)ethyl)amino)ethyl((6Z,9Z,28Z,31Z)-heptatriaconta-6,9,28,31-tetraen-19-yl)carbonate]?
Nucleic acid encapsulation rate [1]: 78%; Particle size (nm) [2]: 71.6 nm

With `CCCCC/C=C\C/C=C\CCCCCCCC(=O)OCC(COC(=O)CCCCCCC/C=C\C/C=C\CCCCC)OC(=O)OCCN(CC)CCN(C)C` [Example 35, 2-(((2-((2-(Dimethylamino)ethyl)(ethyl)amino)ethoxy)carbonyl)oxy)propane-1,3-diyl(9Z,9′Z,12Z,12′Z)-bis(octadeca-9,12-dienoate)] as the compound, how does the “Nucleic acid encapsulation rate” value [1] read?
Its value is 87%.

What about the “Particle size (nm)” value [2] of the same compound?
Its value is 80.1 nm.

Which “Nucleic acid encapsulation rate” value [1] does the source give for `CCCCC/C=C\C/C=C\CCCCCCCCC(CCCCCCCC/C=C\C/C=C\CCCCC)OC(=O)OCCN(CCCC)CCN(CC)CC` [Example 39, 2-(Butyl(2-(diethylamino)ethyl)amino)ethyl((6Z,9Z,28Z,31Z)-heptatriaconta-6,9,28,31-tetraen-19-yl)carbonate] here?
Its value is 88%.

And the “Particle size (nm)” value [2]?
Its value is 78.3 nm.

With `CCCCC/C=C\C/C=C\CCCCCCCCC(CCCCCCCC/C=C\C/C=C\CCCCC)OC(=O)OCCN(CCC)CCN(CC)CC` [Example 44, 2-((2-(Diethylamino)ethyl)(propyl)amino)ethyl((6Z,9Z,28Z,31Z)-heptatriaconta-6,9,28,31-tetraen-19-yl)carbonate] as the compound, how does the “Nucleic acid encapsulation rate” value [1] read?
The value was 59%.

What about the “Particle size (nm)” value [2] of the same compound?
Its value is 69.4 nm.

Which results are given for `CCCCC/C=C\C/C=C\CCCCCCCCC(CCCCCCCC/C=C\C/C=C\CCCCC)OC(=O)OCCN(CC)CCN(CCC)CCC` [Example 49, 2-((2-(Dipropylamino)ethyl)(ethyl)amino)ethyl((6Z,9Z,28Z,31Z)-heptatriaconta-6,9,28,31-tetraen-19-yl)carbonate]?
Nucleic acid encapsulation rate [1]: 80%; Particle size (nm) [2]: 74.3 nm

For `CCCCCCCCC1CC1CCCCCCCC(=O)OCCCCCCC(CCCCCCOC(=O)CCCCCCCC1CC1CCCCCCCC)OC(=O)OCCN(CC)CCN(CC)CC` (stereo not shown) [Example 57], which “Nucleic acid encapsulation rate” value [1] is on record?
The value was 79%.

What about the “Particle size (nm)” value [2] of the same compound?
The value was 77.9 nm.

For `CCCCC/C=C\C/C=C\CCCCCCCCC(CCCCCCCC/C=C\C/C=C\CCCCC)OC(=O)OCCN(CCN(C)CCC)C(C)C` [Example 63, (6Z, 9Z, 28Z, 31Z)-heptatriaconta-6,9,28,31-tetraen-19-yl(2-(isopropyl(2-(methyl(propyl)amino)ethyl)amino)ethyl)carbonate], which “Nucleic acid encapsulation rate” value [1] is on record?
The value was 79%.

And the “Particle size (nm)” value [2]?
The value was 65.8 nm.

Which results are given for `CCCCC/C=C\C/C=C\CCCCCCCCC(CCCCCCCC/C=C\C/C=C\CCCCC)OC(=O)OCCN(CCN(C)CC)C(C)(C)C` [Example 79, 2-(tert-Butyl(2-(ethyl(methyl)amino)ethyl)amino)ethyl((6Z,9Z,28Z,31Z)-heptatriaconta-6,9,28,31-tetraen-19-yl)carbonate]?
Nucleic acid encapsulation rate [1]: 81%; Particle size (nm) [2]: 65.5 nm

For `CCCCCCC(CCCC)COC(=O)CCCC(CCCCCC)OC(=O)OCCN(CC)CCN(CC)CC` (stereo not shown) [Example 80, 2-butyloctyl 3,6-diethyl-12-hexyl-10-oxo-9,11-dioxa-3,6-diazahexadecan-16-oate], which “Nucleic acid encapsulation rate” value [1] is on record?
The value was 61%.

What about the “Particle size (nm)” value [2] of the same compound?
The value was 98.7 nm.

What does the source list for `CCCCCCC(CCCC)COC(=O)CCCC(CCCCCC)OC(=O)OCCN(CCN(CC)CC)C(C)C` (stereo not shown) [Example 81, 2-Butyloctyl 3-ethyl-12-hexyl-6-isopropyl-10-oxo-9,11-dioxa-3,6-diazahexadecan-16-oate]?
Nucleic acid encapsulation rate [1]: 49%; Particle size (nm) [2]: 102.6 nm
